# Source: paper PMC5613062 (Investigational New Drugs, 2017)
# Read-outs that look alike come from different tables or passages of the source.
# Assays:
# [1] = Pharmacokinetics alone and in combination, selumetinib + temsirolimus arm; format: in vivo, human; details: for AUC(0–8) / AUC(0–12) / Cmax / AUC(0-t): geometric mean (% CV); for tmax: median (range); for PK parameters when administered alone and in combination: selumetinib + temsirolimus arm; for AUC(0-t): read-out: AUC(0–8)
# Protocol: (§1) PK parameters were derived using non-compartmental analysis. Cmax and tmax were determined by visual inspection of the plasma concentration-time profiles. AUC(0–12) was calculated by the linear trapezoidal rule. Where more than one maximum occurred, the reported value was assigned to the first occurrence.
# [2] = system: ERK phosphorylation; set-up: method as in earlier work; details: cultured cells; more active than parent; ref IB; cited from earlier work
# [3] = system: cell viability; set-up: method as in earlier work; details: more active than parent; ref IB; cited from earlier work
# [4] = system: CYP1A2; set-up: method as in earlier work; details: weak inhibition; ref IB; cited from earlier work
# [5] = ref Study ARRY-0401, cited from earlier work
# [6] = Pharmacokinetics alone and in combination, selumetinib + erlotinib arm; details: for tmax: median (range)
# Protocol: as §1
# [7] = set-up: method as in LoRusso et al 2005; details: Phase I-II trial; ref LoRusso et al 2005; cited from earlier work
# [8] = set-up: method as in earlier work; details: ref IB; cited from earlier work
# [9] = set-up: method as in earlier work; details: daily oral administration in SBE-CD for 1 month, rats; ref IB; cited from earlier work
# [10] = set-up: method as in earlier work; details: cynomolgus monkeys dosed for up to one month; ref IB; cited from earlier work
# [11] = system: tumor pERK; set-up: method as in Study ARRY-0401; details: 100 mg BD, Day 15 compared with pre-dose; 90% CI 50% to 93%; ref Study ARRY-0401; cited from earlier work
# [12] = system: Ki67; set-up: method as in Study ARRY-0401; details: 100 mg BD; ref Study ARRY-0401; cited from earlier work
# [13] = ref product label, cited from earlier work
# [14] = set-up: method as in product label; details: ref product label; cited from earlier work
# [15] = dosed alone, selumetinib 50 mg cohort (N = 25), temsirolimus 25 mg IV
# [16] = dosed alone, selumetinib 75 mg cohort (N = 6), temsirolimus 25 mg IV
# [17] = dosed in combination, selumetinib 50 mg BID (N = 22) + temsirolimus 25 mg IV
# [18] = dosed in combination, selumetinib 75 mg BID (N = 5) + temsirolimus 25 mg IV
# [19] = geometric mean (% CV), dosed alone, selumetinib 50 mg cohort (N = 14), erlotinib 100 mg QD
# [20] = geometric mean (% CV), dosed alone, selumetinib 75 mg cohort (N = 6), erlotinib 100 mg QD
# [21] = geometric mean (% CV), dosed in combination, selumetinib 50 mg BID (N = 12) + erlotinib 100 mg QD
# [22] = geometric mean (% CV), dosed in combination, selumetinib 75 mg BID (N = 6) + erlotinib 100 mg QD
# [23] = geometric mean, QD cohorts, dosed alone, selumetinib 50 mg cohort (N = 7), erlotinib 100 mg QD
# [24] = geometric mean, QD cohorts, dosed alone, selumetinib 100 mg cohort (N = 6), erlotinib 100 mg QD
# [25] = geometric mean, QD cohorts, dosed alone, selumetinib 150 mg cohort (N = 13), erlotinib 100 mg QD
# [26] = geometric mean, QD cohorts, in combination, selumetinib 50 mg (N = 6) + erlotinib 100 mg QD
# [27] = geometric mean, QD cohorts, in combination, selumetinib 100 mg (N = 6) + erlotinib 100 mg QD
# [28] = geometric mean, QD cohorts, in combination, selumetinib 150 mg (N = 12) + erlotinib 100 mg QD
smiles,measurement,setting,value
O=C(NOCCO)c1cc2nc[nH]c2c(F)c1Nc1ccc(Br)cc1Cl [N-desmethyl selumetinib],AUC(0–8),[1]; [15],124.3 (80.50) ng•h/mL
same,AUC(0–12),[1]; [15],168.2 (54.21) [23] ng•h/mL
same,Cmax,[1]; [15],35.28 (109.00) ng/mL
same,AUC(0–8),[1]; [16],231.1 (68.07) ng•h/mL
same,AUC(0–12),[1]; [16],269.4 (62.60) ng•h/mL
same,Cmax,[1]; [16],75.34 (88.64) ng/mL
same,AUC(0–8),[1]; [17],129.4 (59.96) ng•h/mL
same,AUC(0–12),[1]; [17],168.2 (57.86) [14] ng•h/mL
same,Cmax,[1]; [17],38.51 (81.60) ng/mL
same,AUC(0–8),[1]; [18],167.8 (51.40) ng•h/mL
same,AUC(0–12),[1]; [18],190.5 (55.06) [4] ng•h/mL
same,Cmax,[1]; [18],48.36 (65.63) ng/mL
same,tmax,[1]; [15],1.5 (1.0–8.0) h
same,tmax,[1]; [16],1.5 (1.0–4.0) h
same,tmax,[1]; [17],2.0 (1.0–2.0) h
same,tmax,[1]; [18],2.0 (1.0–2.0) h
same,PK parameters when administered alone and in combination,[1],similar
same,"activity relative to AZD6244 parent compound, inhibition of ERK phosphorylation",[2],approximately 3 fold
same,"activity relative to AZD6244 parent compound, inhibition of cell viability",[3],approximately 5 fold
same,IC50,[4],18.9 µM
same,plasma concentrations/exposure as % of AZD6244 concentrations/exposure,[5]; Part B of the study,≤ 10%
same,AUC(0–8),[6]; [19],141.3 (41.79) [13] ng•h/mL
same,AUC(0–12),[6]; [19],173.4 (39.75) [12] ng•h/mL
same,Cmax,[6]; [19],41.69 (60.64) ng/mL
same,AUC(0–8),[6]; [20],195.9 (36.04) ng•h/mL
same,AUC(0–12),[6]; [20],223.9 (34.90) ng•h/mL
same,Cmax,[6]; [20],66.80 (75.74) ng/mL
same,AUC(0–8),[6]; [21],130.4 (39.09) ng•h/mL
same,AUC(0–12),[6]; [21],153.3 (39.37) ng•h/mL
same,Cmax,[6]; [21],43.37 (47.62) ng/mL
same,AUC(0–8),[6]; [22],227.5 (57.77) ng•h/mL
same,AUC(0–12),[6]; [22],262.7 (53.29) ng•h/mL
same,Cmax,[6]; [22],72.94 (91.01) ng/mL
same,AUC(0–8),[6]; [23],156 ng·h/mL
same,AUC(0–12),[6]; [23],181 ng·h/mL
same,Cmax,[6]; [23],45.6 ng/mL
same,AUC(0–8),[6]; [24],347 ng·h/mL
same,AUC(0–12),[6]; [24],401 ng·h/mL
same,Cmax,[6]; [24],109 ng/mL
same,AUC(0–8),[6]; [25],279 ng·h/mL
same,AUC(0–12),[6]; [25],331 ng·h/mL
same,Cmax,[6]; [25],79.6 ng/mL
same,AUC(0–8),[6]; [26],149 ng·h/mL
same,AUC(0–12),[6]; [26],181 ng·h/mL
same,Cmax,[6]; [26],44.5 ng/mL
same,AUC(0–8),[6]; [27],404 ng·h/mL
same,AUC(0–12),[6]; [27],454 ng·h/mL
same,Cmax,[6]; [27],129 ng/mL
same,AUC(0–8),[6]; [28],286 ng·h/mL
same,AUC(0–12),[6]; [28],344 ng·h/mL
same,Cmax,[6]; [28],68.3 ng/mL
same,tmax,"[6]; QD cohorts, dosed alone, selumetinib 50 mg cohort (N = 7), erlotinib 100 mg QD",1.50 (1.00–4.00) h
same,tmax,"[6]; QD cohorts, dosed alone, selumetinib 100 mg cohort (N = 6), erlotinib 100 mg QD",1.50 (1.50–4.00) h
same,tmax,"[6]; QD cohorts, dosed alone, selumetinib 150 mg cohort (N = 13), erlotinib 100 mg QD",1.50 (1.00–8.00) h
same,tmax,"[6]; QD cohorts, in combination, selumetinib 50 mg (N = 6) + erlotinib 100 mg QD",1.50 (1.50–8.00) h
same,tmax,"[6]; QD cohorts, in combination, selumetinib 100 mg (N = 6) + erlotinib 100 mg QD",1.50 (1.00–2.00) h
same,tmax,"[6]; QD cohorts, in combination, selumetinib 150 mg (N = 12) + erlotinib 100 mg QD",2.00 (1.00–4.00) h
same,tmax,"[6]; dosed alone, selumetinib 50 mg cohort (N = 14), erlotinib 100 mg QD",1.5 (1.0–12.0) h
same,tmax,"[6]; dosed alone, selumetinib 75 mg cohort (N = 6), erlotinib 100 mg QD",1.45 (1.0–2.0) h
same,tmax,"[6]; dosed in combination, selumetinib 50 mg BID (N = 12) + erlotinib 100 mg QD",1.25 (1.0–4.0) h
same,tmax,"[6]; dosed in combination, selumetinib 75 mg BID (N = 6) + erlotinib 100 mg QD",1.5 (1.0–2.0) h
same,PK parameters when administered alone and in combination,[6]; selumetinib + erlotinib arm,similar
O=C(NOC[C@H](O)CO)c1ccc(F)c(F)c1Nc1ccc(I)cc1F [PD-0325901],patients reporting rash,[7],49%
Cn1cnc2c(F)c(Nc3ccc(Br)cc3Cl)c(C(=O)NOCCO)cc21 [AZD6244 free-base],solubility,[8],limited solubility
same,tolerability,[9],well tolerated
same,toxicity findings,[9],soft stools and gastrointestinal mucosal mineralization
same,tissue mineralization,[10],not apparent
same,"inhibition of tumor pERK, geometric mean",[11],81%
same,patients with reduction in Ki67,[12],9/20
same,patients with reduction in Ki67 ≥50% of pre-dose,[12],5 patients
same,patients with SD,"[5]; RECIST, as of 30 September 2006",17 patients
same,best overall response,[5]; RECIST,stable disease (SD)
same,patients with long term (≥5 months) SD,[5]; RECIST,9 patients
same,MTD,[5]; free-base mix and drink formulation,100 mg BD
CN(C)/N=N/c1[nH]cnc1C(N)=O [dacarbazine],incidence of hepatic toxicity with hepatic vein thrombosis and hepatocellular necrosis resulting in death,[13]; patients treated,approximately 0.01%
same,"patients affected by anorexia, nausea, and vomiting",[13]; with the initial few doses,Over 90%
CO[C@H]1C[C@@H]2CC[C@@H](C)[C@@](O)(O2)C(=O)C(=O)N2CCCC[C@H]2C(=O)O[C@H]([C@H](C)C[C@@H]2CC[C@@H](OC(=O)C(C)(CO)CO)[C@H](OC)C2)CC(=O)[C@H](C)/C=C(\C)[C@@H](O)[C@@H](OC)C(=O)[C@H](C)C[C@H](C)/C=C/C=C/C=C/1C [Temsirolimus],Cmax,[1]; [16],749.2 (24.61) [5] ng/mL
same,AUC(0-t),"[1]; human, plasma, iv, dosed alone, selumetinib 50 mg cohort (N = 25), temsirolimus 25 mg IV",1580 ng·h/mL
same,AUC(0–12),"[1]; human, plasma, iv, dosed alone, selumetinib 50 mg cohort (N = 25), temsirolimus 25 mg IV, read-out: AUC(0–12)",1880 ng·h/mL
same,Cmax,"[1]; human, plasma, iv, dosed alone, selumetinib 50 mg cohort (N = 25), temsirolimus 25 mg IV, read-out: Cmax",669 ng/mL
same,AUC(0-t),"[1]; human, plasma, iv, dosed alone, selumetinib 75 mg cohort (N = 6), temsirolimus 25 mg IV",1740 ng·h/mL
same,AUC(0–12),"[1]; human, plasma, iv, dosed alone, selumetinib 75 mg cohort (N = 6), temsirolimus 25 mg IV, read-out: AUC(0–12)",1910 ng·h/mL
same,AUC(0-t),"[1]; human, plasma, iv, dosed in combination, selumetinib 50 mg BID (N = 22) + temsirolimus 25 mg IV",1460 ng·h/mL
same,AUC(0–12),"[1]; human, plasma, iv, dosed in combination, selumetinib 50 mg BID (N = 22) + temsirolimus 25 mg IV, read-out: AUC(0–12)",1610 ng·h/mL
same,Cmax,"[1]; human, plasma, iv, dosed in combination, selumetinib 50 mg BID (N = 22) + temsirolimus 25 mg IV, read-out: Cmax",651 ng/mL
same,AUC(0-t),"[1]; human, plasma, iv, dosed in combination, selumetinib 75 mg BID (N = 5) + temsirolimus 25 mg IV",1540 ng·h/mL
same,AUC(0–12),"[1]; human, plasma, iv, dosed in combination, selumetinib 75 mg BID (N = 5) + temsirolimus 25 mg IV, read-out: AUC(0–12)",1740 ng·h/mL
same,Cmax,"[1]; human, plasma, iv, dosed in combination, selumetinib 75 mg BID (N = 5) + temsirolimus 25 mg IV, read-out: Cmax",695 ng/mL
same,tmax,[1]; [17],1.0 (0.5–1.5) h
same,tmax,[1]; [18],0.5 (0.5–1.0) h
same,PK parameters when administered alone and in combination,[1],similar
same,most common (incidence ≥30%) adverse reactions,[14],"rash, asthenia, mucositis, nausea, edema, and anorexia"
